This is an account of results in paper PMC5193068, “Application of Mice Humanized for CYP2D6 to the Study of Tamoxifen Metabolism and Drug–Drug Interaction with Antidepressants” (Drug Metabolism and Disposition, 2017).

By Ki is commonly meant a dissociation constant, usually derived from enzyme kinetics or from competition with a known ligand. The Cmax is the peak of the concentration-time curve. By Km is commonly meant the concentration of substrate that gives half-maximal velocity.

Data set [1] deals with T1, CYP2D6 (Homo sapiens, UniProt P10635). The conditions noted are these: female, hCYP2D6 (mice humanized for CYP2D6), mouse, in vivo. On the procedure:
All animal work was carried out on 8- to 12-week-old female mice. […] NDT was suspended in corn oil at 2 mg/ml for oral administration at 10 mg/kg (5 µl/g body weight). For sample collection for pharmacokinetic (PK) analysis, 10 µl whole blood was withdrawn from the tail vein at the indicated time points. Samples were immediately added to a tube containing heparin solution (10 µl, 15 IU/ml) and stored at −20°C until processing.
In vivo PK samples were thawed by the addition of 70 µl acetonitrile containing the internal standard (tamoxifen-d5 at 0.2 µg/ml). After incubation on ice for 10 minutes, in vivo and in vitro samples were vortexed (5 seconds) and centrifuged for 10 minutes at 16,000g. The supernatant was added to 96-well plates for liquid chromatography (LC)–tandem mass spectrometry (MS/MS).
Analysis of in vitro incubation and in vivo blood PK samples was carried out on a Waters Acquity ultra-performance LC system and a Micromass Quattro Premier mass spectrometer (both Micromass, Manchester, UK). […] Acquired data were analyzed in QuanLynx (Waters, Milford, MA) relative to analyte standard curves spanning the range of concentrations under study.
Plasma levels of both of these compounds, and of endoxifen, were monitored over the following 48-hour period.

The next data set deals with estrogen receptor (ER). On the set-up: method as in Johnson et al., 2004. As to conditions: ref Johnson et al., 2004; cited from earlier work.
On the set-up of data set [2]: method as in gsk-clinicalstudyregister.com study 29060/474. As to conditions: patients receiving 40 mg/d paroxetine; ref gsk-clinicalstudyregister.com study 29060/474; cited from earlier work.
Another data set relates to murine plasma proteins. Details: method as in van Harten, 1993; Qin et al., 2016. The conditions noted are these: mouse plasma; ref van Harten, 1993; Qin et al., 2016; cited from earlier work.
The target of data set [3] is T1, CYP2D6. As to conditions: read-out: Ki for inhibition of dextromethorphan O-demethylation; HLMs; ref Bertelsen et al. (2003); cited from earlier work.
For another data set, the system named is E0771 cells. Kind of data set: Estradiol dependence of E0771 cell growth in vitro. Format: cell-based, mouse. The conditions noted are these: Supplemental Fig. 2.
A short description of data set [4]: Preliminary single oral dose of tamoxifen in hCYP2D6 mice, blood metabolite concentrations. The format is in vivo. The conditions noted are these: single 15-mg/kg oral dose of tamoxifen; for Cmax: hCYP2D6 (CYP2D6-humanized mouse line), mouse, blood, preliminary, data not shown.
On the set-up of data set [5]: method as in Chang et al., 2016. As to conditions: hPXR/hCAR/h3A4/3A7/2D6 mice, single dose of 20 mg/kg tamoxifen; ref Chang et al., 2016; cited from earlier work.
Data set [6] can be described thus: Endoxifen formation from NDT in Cyp2dKO mouse liver microsomes. The conditions noted are these: 5 µM NDT as substrate. Format: in vitro ADME.
Method: (§1) All in vitro analyses were carried out in 100 mM potassium phosphate buffer, pH 7.4, containing 3.3 mM MgCl2, with agitation at 400 rpm at 37°C on a thermoshaker. All samples were handled in amber tubes under conditions of subdued light for the duration of the procedure. […] All subsequent assays were carried out under the same conditions, irrespective of the microsome source, with 5 µM N-desmethyltamoxifen (NDT) as substrate. […] Solvent (methanol) concentrations were 0.2% or lower in all incubations.
The next data set has as its system CYP1A2. Kind of data set: Correlation of NDT hydroxylation with P450 probe substrate metabolism in panel of 13 HLMs (1A2). The format is in vitro ADME, human. As to conditions: 1A2, Phenacetin O-deethylation.
In a further data set the test system is CYP2A6. The data set is described as follows: Correlation of NDT hydroxylation with P450 probe substrate metabolism in panel of 13 HLMs (2A6). The format is in vitro ADME, human. The conditions noted are these: 2A6, Coumarin 7-hydroxylation.
A further data set deals with CYP2B6. Kind of data set: Correlation of NDT hydroxylation with P450 probe substrate metabolism in panel of 13 HLMs (2B6). Format: in vitro ADME, human. The conditions noted are these: 2B6, S-mephenytoin N-demethylation.
Another data set deals with CYP2C8. The data set is described as follows: Correlation of NDT hydroxylation with P450 probe substrate metabolism in panel of 13 HLMs (2C8). Format: in vitro ADME, human. The conditions noted are these: 2C8, Paclitaxel 6α-hydroxylation.
For a further data set, the system named is CYP2C9. Kind of data set: Correlation of NDT hydroxylation with P450 probe substrate metabolism in panel of 13 HLMs (2C9). The format is in vitro ADME, human. As to conditions: 2C9, Diclofenac 4′-hydroxylation.
The test system of another data set is CYP2C19. Kind of data set: Correlation of NDT hydroxylation with P450 probe substrate metabolism in panel of 13 HLMs (2C19). The format is in vitro ADME, human. As to conditions: 2C19, S-mephenytoin 4′-hydroxylation.
The next data set relates to CYP2E1. The data set is described as follows: Correlation of NDT hydroxylation with P450 probe substrate metabolism in panel of 13 HLMs (2E1). The format is in vitro ADME, human. The conditions noted are these: 2E1, Chlorzoxazone 6-hydroxylation.
The test system of a further data set is CYP3A4. Kind of data set: Correlation of NDT hydroxylation with P450 probe substrate metabolism in panel of 13 HLMs (3A4). The format is in vitro ADME, human. As to conditions: 3A4, Testosterone 6β-hydroxylation.
A short description of data set [7]: Preliminary tolerability of single doses of NDT in mice. Format: in vivo. The conditions noted are these: single doses of NDT required to achieve about 200 ng/ml, data not shown.
The conditions of data set [8]: 2013, Jager et al., 2014, cited from earlier work.
Data set [9] deals with T1, CYP2D6. Kind of data set: Apparent kinetic parameters of endoxifen formation from NDT in hCYP2D6 mouse liver microsomes. The format is in vitro ADME. On the set-up: Assays to determine the apparent kinetic parameters of endoxifen formation in hCYP2D6 mouse liver microsomes (MLMs) were performed in triplicate; tissue Taconic (animals); host or cells: liver microsomes pooled from four hCYP2D6 (CYP2D6-humanized, murine Cyp2d deleted) mice. The conditions noted are these: hCYP2D6 MLMs 0.0625 mg/ml, 6 min, substrate inhibition model.
Method: (§2) All in vitro analyses were carried out in 100 mM potassium phosphate buffer, pH 7.4, containing 3.3 mM MgCl2, with agitation at 400 rpm at 37°C on a thermoshaker. All samples were handled in amber tubes under conditions of subdued light for the duration of the procedure. […] Assays to determine the apparent kinetic parameters of endoxifen formation in hCYP2D6 mouse liver microsomes (MLMs) were performed in triplicate under conditions of linearity for time (6 minutes) and hCYP2D6 protein (0.0625 mg/ml). All subsequent assays were carried out under the same conditions, irrespective of the microsome source, with 5 µM N-desmethyltamoxifen (NDT) as substrate. […] Solvent (methanol) concentrations were 0.2% or lower in all incubations.
(§3) Spearman’s rank correlations and inhibition parameters of ADs were calculated using GraphPad Prism software (version 6; GraphPad Inc., La Jolla, CA).

The target of data set [10] is T1, CYP2D6. The data set is described as follows: Correlation of NDT hydroxylation with P450 probe substrate metabolism in panel of 13 HLMs (2D6). Format: in vitro ADME. On the set-up: Assays to determine the apparent kinetic parameters of endoxifen formation in hCYP2D6 mouse liver microsomes (MLMs) were performed in triplicate; tissue Taconic (animals); host or cells: liver microsomes pooled from four hCYP2D6 (CYP2D6-humanized, murine Cyp2d deleted) mice. The conditions noted are these: 2D6, Bufuralol 1′-hydroxylation.
Method: as §2, §3

The target of data set [11] is T1, CYP2D6. On the set-up: Assays to determine the apparent kinetic parameters of endoxifen formation in hCYP2D6 mouse liver microsomes (MLMs) were performed in triplicate; tissue Taconic (animals); host or cells: liver microsomes pooled from four hCYP2D6 (CYP2D6-humanized, murine Cyp2d deleted) mice; method as in Desta et al. (2004). As to conditions: two individual HLM preparations; ref Desta et al. (2004); read-out: Km (endoxifen formation); cited from earlier work.

Data set [12] deals with T1, CYP2D6. Kind of data set: biochemical.
Method: as §1, §3

Where “and” joins values, the source holds several entries; their conditions need not be identical. Equal values may be shown once. Read-outs that look alike come from different tables or passages of the source. Where only a bound is given, the exact number is not on record here.

T1 sequence (P10635 whole entry): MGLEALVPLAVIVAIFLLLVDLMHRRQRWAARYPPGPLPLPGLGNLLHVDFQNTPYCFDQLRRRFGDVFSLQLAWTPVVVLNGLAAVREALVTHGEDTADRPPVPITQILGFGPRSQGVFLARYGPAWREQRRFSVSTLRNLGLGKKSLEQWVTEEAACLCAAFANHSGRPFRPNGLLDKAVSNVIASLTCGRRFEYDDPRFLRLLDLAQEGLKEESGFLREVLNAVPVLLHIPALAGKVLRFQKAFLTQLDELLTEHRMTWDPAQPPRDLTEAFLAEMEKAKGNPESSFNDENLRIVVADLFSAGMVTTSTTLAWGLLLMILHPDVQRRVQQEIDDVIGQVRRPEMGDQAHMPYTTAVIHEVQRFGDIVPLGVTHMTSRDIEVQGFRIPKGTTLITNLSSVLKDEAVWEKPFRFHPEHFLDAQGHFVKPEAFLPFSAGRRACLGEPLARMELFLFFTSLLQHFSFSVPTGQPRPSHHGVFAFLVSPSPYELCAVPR
Method for CYP1A2: as §1, §3
Method for CYP2A6: as §1, §3
Method for CYP2B6: as §1, §3
Method for CYP2C19: as §2, §3
Method for CYP2C8: as §1, §3
Method for CYP2C9: as §2, §3
Method for CYP2E1: as §2, §3
Method for CYP3A4: as §1, §3

Take `CC/C(=C(\c1ccc(O)cc1)c1ccc(OCCNC)cc1)c1ccccc1` [endoxifen, 4-hydroxy-N-desmethyltamoxifen]: the “endoxifen levels in hCYP2D6 mice relative to human subjects” value at CYP2D6 [1] is 2.5-13 fold. The “potency as estrogen receptor (ER) antagonist relative to the parent compound (tamoxifen)” value in the data set with estrogen receptor (ER) is given as “up to 100 times”.

For `Fc1ccc([C@@H]2CCNC[C@H]2COc2ccc3c(c2)OCO3)cc1` [paroxetine], the “steady-state Cmax” value in data set [2] is reported as “approximately 150 ng/ml”. In addition, the “binding with murine plasma proteins” value in the data set with murine plasma proteins is reported as above 96%. Moreover, the Ki on CYP2D6 [3] is 360 nM.

On to `C[C@]12CC[C@@H]3c4ccc(O)cc4CC[C@H]3[C@@H]1CC[C@@H]2O` [estradiol], for which the “dependence of E0771 cell growth on estradiol” value with E0771 cells was “no dependence whatsoever”.

Turning to `CC/C(=C(\c1ccc(O)cc1)c1ccc(OCCN(C)C)cc1)c1ccccc1` [4-HT, 4-hydroxytamoxifen], in [4], the Cmax came out at 235 ng/mL and the “blood concentration of 4-HT relative to NDT” value amounted to 2.7 fold. Moreover, in data set [5], the “4-HT levels relative to NDT” value is 5.4 fold and the highest concentration (Cmax) is 248 ng/mL. Also, the “potency as estrogen receptor (ER) antagonist relative to the parent compound (tamoxifen)” value in the data set with estrogen receptor (ER) is given as “up to 100 times”.

For the compound `CC/C(=C(\c1ccccc1)c1ccc(OCCNC)cc1)c1ccccc1` [NDT, N-desmethyltamoxifen], the “endoxifen formation by Cyp2dKO liver microsomes” value in data set [6] was “did not produce detectable levels”. The “SRCC with NDT Hydroxylation” value with CYP1A2 was −0.289; with CYP2A6, 0.161; with CYP2B6, 0.572; in the data set on CYP2C8, 0.380; in the data set with CYP2C9, 0.526; with CYP2C19 it was −0.220. Further, the “SRCC with NDT Hydroxylation” value is recorded as 0.311 in the data set with CYP2E1, −0.005 with CYP3A4 and 0.698 at CYP2D6 [10]. Also, the Cmax was 86 ng/mL in data set [4] and 46 ng/mL in data set [5]. The “tolerability of single doses” value in data set [7] is listed as “not well tolerated by all animals”. For the same compound, the “mean steady-state concentration in patient serum” value in data set [8] (patients on tamoxifen, ref Stearns et al., 2003, Madlensky et al., 2011, Lien et al.) is “approximately 200 ng/ml”. Moreover, the “average blood plasma steady-state Cmax” value in [8] (patients receiving 20 mg tamoxifen per day, ref Lien et al.) is reported as “approximately 200 ng/ml”. Also, the “KS1 (apparent, endoxifen formation from NDT)” value on CYP2D6 [9] was found to be 5.1 ± 0.4 µM. For the same compound, on CYP2D6 [9], the “KS2 (apparent, endoxifen formation from NDT)” value is reported as 3.9 ± 0.3 µM. Moreover, at CYP2D6 [11], the Km is 4.5 µM and 5.9 µM.

For `CN(C)CCC=C1c2ccccc2CCc2ccccc21` [amitriptyline], the affinity at CYP2D6 [12], expressed as Ki, was 720 nM.
